Laboratory results as given in US20260262643A1, “HERBICIDAL BENZOXAZINES” (FMC CORPORATION, priority 2022, published 2026).

Key:
barnyardgrass [1] = assay: Test C preemergence; format: in vivo, Echinochloa crusgalli
Summary of the method: (§1)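 Greenhouse herbicide screen, 10-day duration. Test chemicals in solvent/surfactant blend were sprayed onto soil at sowing (pre) or onto 2–10 cm seedlings at one to two leaves (post); injury scored visually against controls, 0 no effect to 100 complete control.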

blackgrass [2] = assay: Test C preemergence; format: in vivo, Alopecurus myosuroides
Summary of the method: as §1

corn [3] = assay: Test C preemergence; format: in vivo, Zea mays
Summary of the method: as §1

green foxtail [4] = assay: Test C preemergence; format: in vivo, Setaria viridis
Summary of the method: as §1

kochia [5] = assay: Test C preemergence; format: in vivo, Bassia scoparia
Summary of the method: as §1

oat, wild [6] = assay: Test C preemergence; format: in vivo, Avena fatua
Summary of the method: as §1

pigweed, palmer [7] = assay: Test C preemergence; format: in vivo, Amaranthus palmeri
Summary of the method: as §1

ragweed [8] = assay: Test C preemergence; format: in vivo, Ambrosia artemisiifolia
Summary of the method: as §1

ryegrass, Italian [9] = assay: Test C preemergence; format: in vivo, Lolium multiflorum
Summary of the method: as §1

soybean [10] = assay: Test C preemergence; format: in vivo, Glycine max
Summary of the method: as §1

wheat [11] = assay: Test C preemergence; format: in vivo, Triticum aestivum
Summary of the method: as §1

barnyardgrass [12] = assay: Test C postemergence; format: in vivo, Echinochloa crusgalli; conditions: 10 days, 0 to 100 scale (0 no effect, 100 complete control)
Summary of the method: as §1

blackgrass [13] = assay: Test C postemergence; format: in vivo, Alopecurus myosuroides; conditions: 10 days, 0 to 100 scale (0 no effect, 100 complete control)
Summary of the method: as §1

corn [14] = assay: Test C postemergence; format: in vivo, Zea mays; conditions: 10 days, 0 to 100 scale (0 no effect, 100 complete control)
Summary of the method: as §1

green foxtail [15] = assay: Test C postemergence; format: in vivo, Setaria viridis; conditions: 10 days, 0 to 100 scale (0 no effect, 100 complete control)
Summary of the method: as §1

kochia [16] = assay: Test C postemergence; format: in vivo, Bassia scoparia; conditions: 10 days, 0 to 100 scale (0 no effect, 100 complete control)
Summary of the method: as §1

oat, wild [17] = assay: Test C postemergence; format: in vivo, Avena fatua; conditions: 10 days, 0 to 100 scale (0 no effect, 100 complete control)
Summary of the method: as §1

pigweed, palmer [18] = assay: Test C postemergence; format: in vivo, Amaranthus palmeri; conditions: 10 days, 0 to 100 scale (0 no effect, 100 complete control)
Summary of the method: as §1

ragweed [19] = assay: Test C postemergence; format: in vivo, Ambrosia artemisiifolia; conditions: 10 days, 0 to 100 scale (0 no effect, 100 complete control)
Summary of the method: as §1

ryegrass, Italian [20] = assay: Test C postemergence; format: in vivo, Lolium multiflorum; conditions: 10 days, 0 to 100 scale (0 no effect, 100 complete control)
Summary of the method: as §1

soybean [21] = assay: Test C postemergence; format: in vivo, Glycine max; conditions: 10 days, 0 to 100 scale (0 no effect, 100 complete control)
Summary of the method: as §1

wheat [22] = assay: Test C postemergence; format: in vivo, Triticum aestivum; conditions: 10 days, 0 to 100 scale (0 no effect, 100 complete control)
Summary of the method: as §1

galium = assay: Test C postemergence; format: in vivo, Galium aparine; conditions: 10 days, 0 to 100 scale (0 no effect, 100 complete control)
Summary of the method: as §1

horseweed = assay: Test C postemergence; format: in vivo, Erigeron canadensis; conditions: 10 days, 0 to 100 scale (0 no effect, 100 complete control)
Summary of the method: as §1

barnyardgrass [23] = assay: Test D flooded paddy test; format: in vivo, Echinochloa crus-galli; conditions: 250 g ai/ha, applied to paddy water, visual rating after 13 to 14 days, scale 0 to 100 (0 no effect, 100 complete control)
Summary of the method: (§2)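 Visual ratings from 0, meaning no effect, to 100, meaning complete control, were assigned against untreated controls 13 to 14 days after compounds were added to the floodwater of pots kept 3 cm deep, with plants at the 2-leaf stage.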

ducksalad = assay: Test D flooded paddy test; format: in vivo, Heteranthera limosa; conditions: 250 g ai/ha, applied to paddy water, visual rating after 13 to 14 days, scale 0 to 100 (0 no effect, 100 complete control)
Summary of the method: as §2

rice = assay: Test D flooded paddy test; format: in vivo, Oryza sativa; conditions: 250 g ai/ha, applied to paddy water, visual rating after 13 to 14 days, scale 0 to 100 (0 no effect, 100 complete control)
Summary of the method: as §2

sedge, umbrella = assay: Test D flooded paddy test; format: in vivo, Cyperus difformis; conditions: 250 g ai/ha, applied to paddy water, visual rating after 13 to 14 days, scale 0 to 100 (0 no effect, 100 complete control)
Summary of the method: as §2

[24] = 500 g ai/ha, preemergence, 0 to 100 scale (0 no effect, 100 complete control)
[25] = Preemergence, 125 g ai/ha, 0 to 100 scale, 0 no effect, 100 complete control

For `CCOC[C@H]1CN(C(=O)c2cc(-n3cnc(C4CCC4)n3)cc3c2OCCO3)c2cccc(Cl)c2O1` [Compound 386], the “Barnyardgrass plant response rating” value (barnyardgrass [1]; [24]) was 70, the “Plant response rating, Barnyardgrass” value (barnyardgrass [1]; [25]) was 40 and the “Blackgrass plant response rating” value (blackgrass [2]; [24]) was 0. For the same compound, the “Plant response rating, Blackgrass” value (blackgrass [2]; [25]) was 0, the “Corn plant response rating” value (corn [3]; [24]) was 20 and the “Plant response rating, Corn” value (corn [3]; [25]) was 0. For the same compound, the “Foxtail, Green plant response rating” value (green foxtail [4]; [24]) was 90, the “Plant response rating, Foxtail, Green” value (green foxtail [4]; [25]) was 40 and the “Kochia plant response rating” value (kochia [5]; [24]) was 70. For the same compound, the “Plant response rating, Kochia” value (kochia [5]; [25]) was 70, the “Oat, Wild plant response rating” value (oat, wild [6]; [24]) was 40 and the “Plant response rating, Oat, Wild” value (oat, wild [6]; [25]) was 30. The “Pigweed, Palmer plant response rating” value (pigweed, palmer [7]; [24]) was 100, the “Plant response rating, Pigweed, Palmer” value (pigweed, palmer [7]; [25]) was 100 and the “Ragweed plant response rating” value (ragweed [8]; [24]) was 80. The “Plant response rating, Ragweed” value (ragweed [8]; [25]) was 20, the “Ryegrass, Italian plant response rating” value (ryegrass, Italian [9]; [24]) was 80 and the “Plant response rating, Ryegrass, Italian” value (ryegrass, Italian [9]; [25]) was 50. For the same compound, the “Soybean plant response rating” value (soybean [10]; [24]) was 100, the “Plant response rating, Soybean” value (soybean [10]; [25]) was 50 and the “Wheat plant response rating” value (wheat [11]; [24]) was 0. The “Plant response rating, Wheat” value (wheat [11]; [25]) was 0, the “Plant response rating, Barnyardgrass” value (barnyardgrass [12]; 500 g ai/ha, postemergence) was 30 and the “Plant response rating, Barnyardgrass” value (barnyardgrass [12]; Postemergence, 125 g ai/ha) was 20. The “Plant response rating, Blackgrass” value (blackgrass [13]; 500 g ai/ha, postemergence) was 50, the “Plant response rating, Blackgrass” value (blackgrass [13]; Postemergence, 125 g ai/ha) was 0 and the “Plant response rating, Corn” value (corn [14]; 500 g ai/ha, postemergence) was 20. For the same compound, the “Plant response rating, Corn” value (corn [14]; Postemergence, 125 g ai/ha) was 10, the “Plant response rating, Foxtail, Green” value (green foxtail [15]; 500 g ai/ha, postemergence) was 50 and the “Plant response rating, Foxtail, Green” value (green foxtail [15]; Postemergence, 125 g ai/ha) was 10. The “Plant response rating, Kochia” value (kochia [16]; 500 g ai/ha, postemergence) was 90, the “Plant response rating, Kochia” value (kochia [16]; Postemergence, 125 g ai/ha) was 80 and the “Plant response rating, Oat, Wild” value (oat, wild [17]; 500 g ai/ha, postemergence) was 0. The “Plant response rating, Oat, Wild” value (oat, wild [17]; Postemergence, 125 g ai/ha) was 0, the “Plant response rating, Pigweed, Palmer” value (pigweed, palmer [18]; 500 g ai/ha, postemergence) was 100 and the “Plant response rating, Pigweed, Palmer” value (pigweed, palmer [18]; Postemergence, 125 g ai/ha) was 80. The “Plant response rating, Ragweed” value (ragweed [19]; 500 g ai/ha, postemergence) was 80, the “Plant response rating, Ragweed” value (ragweed [19]; Postemergence, 125 g ai/ha) was 50 and the “Plant response rating, Ryegrass, Italian” value (ryegrass, Italian [20]; 500 g ai/ha, postemergence) was 60. For the same compound, the “Plant response rating, Ryegrass, Italian” value (ryegrass, Italian [20]; Postemergence, 125 g ai/ha) was 40, the “Plant response rating, Soybean” value (soybean [21]; 500 g ai/ha, postemergence) was 100 and the “Plant response rating, Soybean” value (soybean [21]; Postemergence, 125 g ai/ha) was 100. For the same compound, the “Plant response rating, Wheat” value (wheat [22]; 500 g ai/ha, postemergence) was 10, the “Plant response rating, Wheat” value (wheat [22]; Postemergence, 125 g ai/ha) was 10 and the “Plant response rating, Galium” value (galium; 500 g ai/ha, postemergence) was 100. The “Plant response rating, Galium” value (galium; Postemergence, 125 g ai/ha) was 100, the “Plant response rating, Horseweed” value (horseweed; 500 g ai/ha, postemergence) was 60 and the “Plant response rating, Horseweed” value (horseweed; Postemergence, 125 g ai/ha) was 30. For the same compound, the “Plant response rating, Barnyardgrass (Flood)” value (barnyardgrass [23]) was 0, the “Plant response rating, Ducksalad (Flood)” value (ducksalad) was 0 and the “Plant response rating, Rice (Flood)” value (rice) was 0. For the same compound, the “Plant response rating, Sedge, Umbrella (Flood)” value (sedge, umbrella) was 0.
